Usually IC50 stands for the concentration that gives 50% inhibition. A higher IC50 goes with weaker potency in that assay.

Sequence of human IL-17A / human IL-17RA (Q16552 24-155): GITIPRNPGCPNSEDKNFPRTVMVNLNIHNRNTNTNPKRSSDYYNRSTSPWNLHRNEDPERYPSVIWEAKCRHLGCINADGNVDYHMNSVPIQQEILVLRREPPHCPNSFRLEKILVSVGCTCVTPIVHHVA

The target in this assay is human IL-17A / human IL-17RA (Homo sapiens (Human), UniProt Q16552). In words: Human IL-17A biochemical assay (HTRF, blocking of IL-17A binding to IL-17RA). As to conditions: 0.4 nM IL-17A, 0.3 nM IL-17RA, max compound concentration 10 uM. How it is done:
Compounds disclosed herein were tested for blocking of human IL-17A (Cat: C774, novoprotein) protein with its receptor human IL-17RA (Cat: C153, novoprotein) in an assay based on Homogeneous Time Resolved Fluorescence. 0.4 nM recombinant human IL-17A protein was pre-incubated with a serial dilution of compounds disclosed herein (maximum concentration is 10 uM, 2.7-fold serially diluted, 10 points) at room temperature for 3 hours in an assay buffer containing 20 mM HEPES, pH 7.5, 50 mM NaCl, 0.1% BSA, 0.2 mM DTT, 0.005% Tween 20. Then 0.3 nM recombinant human IL-17RA was added to plate and further incubated at room temperature for 1 hour. After that Mab Anti-6His Tb cryptate Gold (Cat: 61HI2TLB, Cisbio Bioassays) and MAb Anti Human IgG-XL665 (Cat: 61HFCXLB, Cisbio Bioassays) were added to plate and further incubated at room temperature for 1 hour. The HTRF signals (ex337 nm, em620 nm/665 nm) were read on BMG PHERAstar FSX instrument. The inhibition percentage of human IL-17A interaction with its receptor human IL-17RA in presence of increasing concentrations of compounds was calculated based on the ratio of […]. The IC50 for each compound was derived from fitting the data to the four-parameter logistic equation by Dotmatics.
The compound `Cc1nonc1C(=O)N[C@H](C(=O)Nc1ccc2c(c1)CC(C(=O)Nc1ccc(C3CC3)cc1Cl)(N1C[C@@H](C(C)C)NC1=O)C2)C(C1CC1)C1CC1` (stereo partly drawn) [Example 267, N-((2S)-1-((2-((2-chloro-4-cyclopropylphenyl)carbamoyl)-2-((R)-4-isopropyl-2-oxoimidazolidin-1-yl)-2,3-dihydro-1H-inden-5-yl)amino)-3,3-dicyclopropyl-1-oxopropan-2-yl)-4-methyl-1,2,5-oxadiazole-3-carboxamide] yielded an IC50 of more than 10 µM. To `CNC(=O)C1(N2CC(C)NC2=O)COc2ccc(NC(=O)[C@@H](NC(=O)c3ccnn3C)C3CCCCC3)cc2OC1` (stereo partly drawn) [Example 6, N-((1S)-1-cyclohexyl-2-((3-(4-methyl-2-oxoimidazolidin-1-yl)-3-(methylcarbamoyl)-3,4-dihydro-2H-benzo[b][1,4]dioxepin-7-yl)amino)-2-oxoethyl)-1-methyl-1H-pyrazole-5-carboxamide] belongs 17 µM; to `CNC(=O)C1(N2CCC(C)NC2=O)Cc2ccc(NC(=O)[C@@H](NC(=O)c3ccnn3C)C3CCCCC3)cc2C1` (stereo partly drawn) [Example 95, N-((1S)-1-cyclohexyl-2-((2-(4-methyl-2-oxotetrahydropyrimidin-1(2H)-yl)-2-(methylcarbamoyl)-2,3-dihydro-1H-inden-5-yl)amino)-2-oxoethyl)-1-methyl-1H-pyrazole-5-carboxamide], 4.23 µM; to `Cc1nonc1C(=O)N[C@H](C(=O)Nc1ccc2c(c1)CC(C(=O)Nc1cc(Cl)cc(Cl)c1)(N1C[C@@H](C(C)C)NC1=O)C2)C(C1CC1)C1CC1` (stereo partly drawn) [Example 265, N-((2S)-1,1-dicyclopropyl-3-((2-((3,5-dichlorophenyl)carbamoyl)-2-((R)-4-isopropyl-2-oxoimidazolidin-1-yl)-2,3-dihydro-1H-inden-5-yl)amino)-3-oxopropan-2-yl)-4-methyl-1,2,5-oxadiazole-3-carboxamide], 8.07 µM. Then `CNC(=O)C1(N2CCCNC2=O)Cc2ccc(NC(=O)[C@@H](NC(=O)c3ccnn3C)C3CCCCC3)cc2C1` (stereo partly drawn) [Example 134, N-((1S)-1-cyclohexyl-2-((2-(methylcarbamoyl)-2-(2-oxotetrahydropyrimidin-1(2H)-yl)-2,3-dihydro-1H-inden-5-yl)amino)-2-oxoethyl)-1-methyl-1H-pyrazole-5-carboxamide], with 0.311 µM. To `CNC(=O)C1Cc2ccc(NC(=O)[C@@H](NC(=O)c3ccnn3C)C3CCCCC3)cc2C1` (stereo partly drawn) [Example 4, N-((1S)-1-cyclohexyl-2-((2-(methylcarbamoyl)-2,3-dihydro-1H-inden-5-yl)amino)-2-oxoethyl)-1-methyl-1H-pyrazole-5-carboxamide] belongs more than 10 µM; to `CNC(=O)C1(N2CC3(CC3)CNC2=O)Cc2ccc(NC(=O)[C@@H](NC(=O)c3ccn(C4CC(O)C4)n3)C3CCCCC3)cc2C1` (stereo partly drawn) [Example 133, N-((1S)-1-cyclohexyl-2-((2-(methylcarbamoyl)-2-(6-oxo-5,7-diazaspiro[2.5]octan-5-yl)-2,3-dihydro-1H-inden-5-yl)amino)-2-oxoethyl)-1-(3-hydroxycyclobutyl)-1H-pyrazole-3-carboxamide], 0.32 µM. Compound `CNC(=O)C1(N2CC(C)NC2=O)CCc2ccc(NC(=O)[C@@H](NC(=O)c3ccnn3C)C3CCCCC3)cc2CC1` (stereo partly drawn) [Example 7, N-((1S)-1-cyclohexyl-2-((7-(4-methyl-2-oxoimidazolidin-1-yl)-7-(methylcarbamoyl)-6,7,8,9-tetrahydro-5H-benzo[7]annulen-2-yl)amino)-2-oxoethyl)-1-methyl-1H-pyrazole-5-carboxamide] came in with an IC50 of 51 µM. Then `CNC(=O)C1(N2CC(C3CCOC3)NC2=O)Cc2ccc(NC(=O)[C@@H](NC(=O)c3ccnn3C)C3CCCCC3)cc2C1` (stereo partly drawn) [Example 34, N-((1S)-1-cyclohexyl-2-((2-(methylcarbamoyl)-2-(2-oxo-4-(tetrahydrofuran-3-yl)imidazolidin-1-yl)-2,3-dihydro-1H-inden-5-yl)amino)-2-oxoethyl)-1-methyl-1H-pyrazole-5-carboxamide], with 8.4 µM.

`CNC(=O)C1(N2C[C@@H](C(C)C)NC2=O)Cc2ccc(NC(=O)C(Cc3cc(Cl)ccc3Cl)NC(=O)c3ccnn3C)cc2C1` (stereo partly drawn) [Example 127, N-(3-(2,5-dichlorophenyl)-1-((2-((R)-4-isopropyl-2-oxoimidazolidin-1-yl)-2-(methylcarbamoyl)-2,3-dihydro-1H-inden-5-yl)amino)-1-oxopropan-2-yl)-1-methyl-1H-pyrazole-5-carboxamide]: the IC50 is 0.698 µM. To `CNC(=O)C1(N2C[C@@H](C(C)C)NC2=O)Cc2ccc(NC(=O)[C@H](NC(=O)c3ccnn3C)C(C3CC3)C3CC3)cc2C1` (stereo partly drawn) [Example 93, N-((2R)-1,1-dicyclopropyl-3-((2-((R)-4-isopropyl-2-oxoimidazolidin-1-yl)-2-(methylcarbamoyl)-2,3-dihydro-1H-inden-5-yl)amino)-3-oxopropan-2-yl)-1-methyl-1H-pyrazole-5-carboxamide] belongs 0.83 µM. Then `CNC(=O)C1(N2C[C@@H](C(C)C)NC2=O)Cc2ccc(NC(=O)[C@@H](NC(=O)c3ccnn3C)C3CCOCC3)cc2C1` (stereo partly drawn) [Example 85, N-((1S)-2-((2-((R)-4-isopropyl-2-oxoimidazolidin-1-yl)-2-(methylcarbamoyl)-2,3-dihydro-1H-inden-5-yl)amino)-2-oxo-1-(tetrahydro-2H-pyran-4-yl)ethyl)-1-methyl-1H-pyrazole-5-carboxamide], with 10.1 µM. To `CNC(=O)C1(N2CC(CC3CCCCC3)NC2=O)Cc2ccc(NC(=O)[C@@H](NC(=O)c3ccnn3C)C3CCCCC3)cc2C1` (stereo partly drawn) [Example 88, N-((1S)-1-cyclohexyl-2-((2-(4-(cyclohexylmethyl)-2-oxoimidazolidin-1-yl)-2-(methylcarbamoyl)-2,3-dihydro-1H-inden-5-yl)amino)-2-oxoethyl)-1-methyl-1H-pyrazole-5-carboxamide] belongs 2.06 µM; to `CNC(=O)C1(N2C[C@@H](C(C)C)NC2=O)Cc2ccc(NC(=O)[C@@H](NC(=O)c3ccnn3C)c3ccccc3)cc2C1` (stereo partly drawn) [Example 60, N-((1S)-2-((2-((R)-4-isopropyl-2-oxoimidazolidin-1-yl)-2-(methylcarbamoyl)-2,3-dihydro-1H-inden-5-yl)amino)-2-oxo-1-phenylethyl)-1-methyl-1H-pyrazole-5-carboxamide], 2.01 µM; to `CNC(=O)C1(N2C[C@@H](C(C)C)NC2=O)Cc2ccc(NC(=O)[C@@H](NC(=O)c3ncnn3C)C3CCCCC3)cc2C1` (stereo partly drawn) [Example 64, N-((1S)-1-cyclohexyl-2-((2-((R)-4-isopropyl-2-oxoimidazolidin-1-yl)-2-(methylcarbamoyl)-2,3-dihydro-1H-inden-5-yl)amino)-2-oxoethyl)-1-methyl-1H-1,2,4-triazole-5-carboxamide], 1.82 µM.

Compound `CNC(=O)C1(N2CC(CC(F)(F)F)NC2=O)Cc2ccc(NC(=O)[C@@H](NC(=O)c3ccnn3C)C3CCCCC3)cc2C1` (stereo partly drawn) [Example 73, N-((1S)-1-cyclohexyl-2-((2-(methylcarbamoyl)-2-(2-oxo-4-(2,2,2-trifluoroethyl)imidazolidin-1-yl)-2,3-dihydro-1H-inden-5-yl)amino)-2-oxoethyl)-1-methyl-1H-pyrazole-5-carboxamide] had an IC50 of 0.391 µM.

(Values after US20250154138A1, “Small Molecule IL-17A Modulators” (BeiGene, Ltd., priority 2022, published 2025).)
